From PMC12476087, “Loading of Dicarboxylatoplatinum(II)‐NHC Complexes in Bacterial Ghosts as an Advanced Development in Cancer Therapy” (Archiv Der Pharmazie, 2025)

Columns and labels:
[1] = test system: A2780wt cells; assay: MTT assay, A2780wt cells; format: cell-based; conditions: for IC50: MTT assay, 72 h exposure
Method: (§1) Carboplatin, a second‐generation platinum drug commonly used as part of standard first‐line chemotherapy for ovarian carcinoma, was examined as a reference compound due to its clinical relevance. Additionally, the nonmalignant bone marrow stromal cell line HS‐5 was included as a control to assess specificity of the complexes toward cancer cells.
Unloaded BGs (4 × 10^8 EcN or 2 × 10^8 Ec NM522, which is equivalent to the highest tested BG concentration) were tested as controls.
The exponentially growing cells were seeded at a density of 8 × 10^3 cells/well (A2780wt/cis) or 1 × 10^4 cells/well (HS‐5), respectively, into clear flat‐bottom 96‐well plates in triplicates. […] After another 72 h of incubation, the cellular metabolic activity was measured as an indicator of cell viability employing an MTT assay. Hereby, 20 µL of a 5 mg/mL MTT solution was added to each well, respectively. After 3 h of incubation, the medium was discarded, and the formazan crystals formed were dissolved in DMSO for 15 min with gentle shaking. […] The OD at 620 nm was subtracted from the OD at 595 nm. The OD of the medium was subtracted to exclude the unspecific staining caused by FCS‐containing medium. Cells treated with vehicle control (0.1% DMF) only were set at 100% metabolic activity. The IC50 values were calculated with Prism 8.0 (GraphPad Software Inc., Boston, MA, USA) using nonlinear regression. Significance was evaluated via a one sample t‐test performed with Prism 8.0.

[2] = test system: HS‐5 cells; assay: MTT assay, HS‐5 cells; format: cell-based; conditions: 72 h exposure, nonmalignant bone marrow stromal cells
Method: as §1
The exponentially growing cells were seeded at a density of 8 × 10^3 cells/well (A2780wt/cis) or 1 × 10^4 cells/well (HS‐5), respectively, into clear flat‐bottom 96‐well plates in triplicates. Following 24 h of incubation for the adherence of the cells at 37°C in a humidified atmosphere (5% CO2/95% air), the test compounds were added. […] For the evaluation of the cell growth inhibition by the compounds loaded in BGs, the BG suspensions were directly diluted in RPMI 1640 to the desired testing concentration (25 µM). After another 72 h of incubation, the cellular metabolic activity was measured as an indicator of cell viability employing an MTT assay. Hereby, 20 µL of a 5 mg/mL MTT solution was added to each well, respectively. After 3 h of incubation, the medium was discarded, and the formazan crystals formed were dissolved in DMSO for 15 min with gentle shaking. Afterward, the optical density (OD) was measured at 595 and 620 nm, respectively on an EnSpire Multimode Plate Reader (revvity, Waltham, MA, USA). The OD at 620 nm was subtracted from the OD at 595 nm. The OD of the medium was subtracted to exclude the unspecific staining caused by FCS‐containing medium. Cells treated with vehicle control (0.1% DMF) only were set at 100% metabolic activity. The IC50 values were calculated with Prism 8.0 (GraphPad Software Inc., Boston, MA, USA) using nonlinear regression. Significance was evaluated via a one sample t‐test performed with Prism 8.0.

[3] = Water solubility; format: physicochemical
[4] = test system: A2780wt cells; assay: Annexin V/PI staining and FACS analysis, A2780wt; format: cell-based; conditions: w/o BGs, 25 µM, 24 h; for late apoptosis/ necrosis: Annexin V positive/PI positive; for early apoptosis: percentage of cells (Annexin V positive/PI negative)
Method: (§2) Therefore, we aimed to evaluate the apoptosis and necrosis inducing potential of complexes 1–4 via a fluorescent‐activated cell sorting (FACS) analysis with Annexin V/propidium iodide (PI) staining in A2780wt and A2780cis cells. Cells were treated for 24 h with both the free and BG‐loaded forms of each compound at 25 µM. Carboplatin (50 µM) served as a reference.
(§3) To evaluate the mode of cell death, a FACS measurement after staining with Annexin V and PI was conducted. First, 0.3 × 10^6 A2780wt or A2780cis cells were seeded into 12‐well plates and were allowed to adhere for 24 h. The compounds were added at 25 µM, either diluted from a freshly prepared DMF stock solution (0.1% DMF) or freshly thawed when loaded in BGs. After 24 h of incubation, the cells were harvested with accutase and washed with PBS. The cells were then resuspended in 200 µL of PBS each and 1 µL of PI solution (Sigma‐Aldrich, Taufkirchen, Germany) and 1 µL of Annexin V‐FITC (MabTag GmbH, Friesoythe, Germany) were added to each sample. These were then incubated for 20 min at rt under light‐protected conditions and afterward transferred onto ice. The percentage of apoptotic cells was determined by analyzing Annexin V positive /PI negative cells using a BD LSRFortessa flow cytometer and BD FACSDiva software (both BD Biosciences, San Jose, CA, USA). The apoptosis analysis included the evaluation of early apoptosis (Annexin V positive/PI negative) and late apoptosis/necrosis (Annexin V positive /PI positive).

[5] = test system: A2780cis cells; assay: Annexin V/PI staining and FACS analysis, A2780cis; format: cell-based; conditions: w/o BGs, 25 µM, 24 h; for late apoptosis/ necrosis: Annexin V positive/PI positive; for early apoptosis: percentage of cells (Annexin V positive/PI negative)
Method: as §2, §3

[6] = test system: A2780wt cells; assay: ATP luminescence assay, A2780wt; format: cell-based; conditions: w/o BGs, 25 µM, 24 h
Text: As a second potential mode of cell death, ICD has been investigated. Thus, two hallmarks of ICD, namely release of adenosine triphosphate (ATP) and calreticulin translocation to the plasma membrane have been analyzed in detail. Given that some platinum complexes, including the clinically used drug oxaliplatin [27], as well as BGs, are known inducers of ICD, we investigated the potential of BGs loaded with platinum(II)‐NHC complexes to trigger this process. […] Untreated cells (without compound and without BGs) were tested as negative controls.
The ATP assay was performed by employing the commercially available ATPlite Luminescence Assay System 96‐well (revvity, Massachusetts, USA). In brief, A2780wt and A2780cis cells, respectively, were seeded at a density of 8 × 10^3 cells per well into an opaque‐walled 96‐well plate with solid bottoms. […] After incubation, 50 µL of the provided mammalian cell lysis solution was added and incubated for further 5 min on an orbital shaker at 700 rpm. Then, 50 µL of a provided substrate solution was added and again incubated for 5 min on an orbital shaker at 700 rpm. The plate was allowed to dark adapt for 10 min and then the luminescence was measured. Analysis was performed on the BioTek Synergy H1.

[7] = test system: surface calreticulin on A2780cis cells; assay: Immunofluorescent surface calreticulin staining, A2780cis; format: cell-based; conditions: w/o BGs, 25 µM, 24 h
Method: Oxaliplatin, a known metal‐based ICD inducer, was included for comparison.
A2780wt or A2780cis cells were seeded at a density of 1.2 × 10^5 on cover slips and allowed to adhere for 24 h. […] Subsequently, the cells were washed again three times with PBS and they were incubated after adding the secondary antibody (Alexa‐Fluor‐conjugated anti‐rabbit, 1:200), for 45 min at rt. Subsequently, the cells were washed again three times with PBS and they were mounted on slides with mounting medium. After letting them dry overnight, visualization was performed by spinning disk confocal microscopy. […] Acquired images were background subtracted, individual cells were manually segmented, and fluorescence intensity for the calreticulin staining was quantified with a FIJI software. Two repetitions of the experiment were performed, where at least 20 cells per condition were analyzed and the mean intensity of each sample was calculated, respectively.

With CCN1[C]([Pt]([O]C(C)=O)([O]C(C)=O)[SH](C)(C)=O)N(CC)c2ccccc21 [Compound 1, (SP‐4‐2)‐Diacetato(1,3‐diethylbenzimidazol‐2‐ylidene)(dimethylsulfoxide)platinum(II)] the IC50 [1] was 31.1 ± 2.39 µM, the “metabolic activity of A2780wt cells” value ([1]; free (non‐loaded) compound, 25 µM, 72 h) was 85% and the IC50 [2] was 64.3 ± 8.2 µM. The water solubility [3] was “approximately 10 mg/mL”, the late apoptosis/ necrosis [4] was 29.1 ± 2.56 and the early apoptosis [4] was 15.9 ± 1.55. For the same compound, the late apoptosis/ necrosis [5] was 15.0 ± 1.65, the early apoptosis [5] was 21.3 ± 1.18 and the ATP concentration [6] was 0.20 ± 0.04 µM. The “x‐fold intensity of surface calreticulin compared to untreated cells” value (from here on “x‐fold intensity of surface calreticulin”) [7] was 1.18 ± 0.37 x‐fold.

CCN1[C]([Pt]([O]C(=O)C(Cl)Cl)([O]C(=O)C(Cl)Cl)[SH](C)(C)=O)N(CC)c2ccccc21 [Compound 3, (SP‐4‐2)‐Bis(dichloroacetato)(1,3‐diethylbenzimidazol‐2‐ylidene)(dimethylsulfoxide)platinum(II)] showed an IC50 [1] of 58.9 ± 2.05 µM, an IC50 [2] of over 100 µM and a water solubility [3] of under 500 µg/mL. It also gave a late apoptosis/ necrosis [4] of 28.8 ± 2.50, an early apoptosis [4] of 15.3 ± 1.17 and a late apoptosis/ necrosis [5] of 10.6 ± 0.95. For the same compound, the early apoptosis [5] was 11.4 ± 1.82, the ATP concentration [6] was 0.15 ± 0.08 µM and the “x‐fold intensity of surface calreticulin” value [7] was 0.75 ± 0.28 x‐fold.

In the case of “(SP‐4‐2)‐Bis(dichloroacetato)bis(1,3‐diethylbenzimidazol‐2‐ylidene)platinum(II) [Compound 4]”, the IC50 [1] is reported as 37.9 ± 1.58 µM, the IC50 [2] is reported as 37 ± 1.36 µM and the water solubility [3] is reported as under 500 µg/mL. It also gave a late apoptosis/ necrosis [4] of 46.9 ± 3.01, an early apoptosis [4] of 13.2 ± 0.22 and a late apoptosis/ necrosis [5] of 18.1 ± 1.46. The early apoptosis [5] was 22.9 ± 1.67, the ATP concentration [6] was 0.32 ± 0.13 µM and the “x‐fold intensity of surface calreticulin” value [7] was 1.13 ± 0.36 x‐fold.

For “(SP‐4‐2)‐Diacetatobis(1,3‐diethylbenzimidazol‐2‐ylidene)platinum(II) [Compound 2]”, the IC50 [1] was 40.8 ± 2.34 µM, the IC50 [2] was over 50 µM and the water solubility [3] was “around 3 mg/mL”. The late apoptosis/ necrosis [4] was 25.9 ± 5.70, the early apoptosis [4] was 9.37 ± 0.31 and the late apoptosis/ necrosis [5] was 10.0 ± 1.77. For the same compound, the early apoptosis [5] was 6.37 ± 1.17, the ATP concentration [6] was 0.32 ± 0.03 µM and the “x‐fold intensity of surface calreticulin” value [7] was 1.02 ± 0.05 x‐fold.
